US20090311217A1, “3-SUBSTITUTED-1H-INDOLE COMPOUNDS, THEIR USE AS MTOR KINASE AND PI3 KINASE INHIBITORS, AND THEIR SYNTHESES” (priority 2008, published 2009)

Each compound was assayed against PI3K-alpha (Homo sapiens, UniProt P42336) (assay: PI3K-alpha fluorescence polarization assay). Settings: read-out: PI3Kα Avg. IC50.
Format: biochemical

PI3K-alpha, sequence (P42336 whole entry, species assumed): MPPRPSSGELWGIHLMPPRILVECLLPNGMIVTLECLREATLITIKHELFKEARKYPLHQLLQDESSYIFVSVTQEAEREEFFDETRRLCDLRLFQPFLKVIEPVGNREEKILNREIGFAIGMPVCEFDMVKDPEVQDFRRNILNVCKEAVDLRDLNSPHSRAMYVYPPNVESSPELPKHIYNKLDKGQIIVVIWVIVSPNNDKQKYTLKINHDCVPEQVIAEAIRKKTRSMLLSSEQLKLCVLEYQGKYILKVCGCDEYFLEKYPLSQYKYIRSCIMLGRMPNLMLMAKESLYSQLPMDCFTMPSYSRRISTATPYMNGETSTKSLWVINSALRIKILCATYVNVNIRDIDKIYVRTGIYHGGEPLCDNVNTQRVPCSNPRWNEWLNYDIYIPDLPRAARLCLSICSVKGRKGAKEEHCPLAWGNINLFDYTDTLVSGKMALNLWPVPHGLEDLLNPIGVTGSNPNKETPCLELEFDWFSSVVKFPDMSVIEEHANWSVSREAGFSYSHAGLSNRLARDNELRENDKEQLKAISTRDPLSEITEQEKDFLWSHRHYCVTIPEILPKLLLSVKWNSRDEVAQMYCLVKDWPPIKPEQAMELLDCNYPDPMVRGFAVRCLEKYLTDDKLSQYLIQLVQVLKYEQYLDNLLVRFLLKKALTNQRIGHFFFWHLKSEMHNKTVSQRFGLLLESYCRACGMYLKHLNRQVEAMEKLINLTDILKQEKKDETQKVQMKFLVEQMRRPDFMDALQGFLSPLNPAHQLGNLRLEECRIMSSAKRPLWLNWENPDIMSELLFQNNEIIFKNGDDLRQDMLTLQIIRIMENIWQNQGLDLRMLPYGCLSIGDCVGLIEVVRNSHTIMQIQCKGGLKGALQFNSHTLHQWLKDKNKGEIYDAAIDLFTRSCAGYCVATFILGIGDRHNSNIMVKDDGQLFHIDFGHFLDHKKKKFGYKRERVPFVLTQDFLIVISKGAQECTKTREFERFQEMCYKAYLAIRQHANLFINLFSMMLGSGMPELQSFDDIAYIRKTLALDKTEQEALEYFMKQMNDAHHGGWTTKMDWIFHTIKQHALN
PI3K-alpha, sequence (P27986 whole entry partner, species assumed): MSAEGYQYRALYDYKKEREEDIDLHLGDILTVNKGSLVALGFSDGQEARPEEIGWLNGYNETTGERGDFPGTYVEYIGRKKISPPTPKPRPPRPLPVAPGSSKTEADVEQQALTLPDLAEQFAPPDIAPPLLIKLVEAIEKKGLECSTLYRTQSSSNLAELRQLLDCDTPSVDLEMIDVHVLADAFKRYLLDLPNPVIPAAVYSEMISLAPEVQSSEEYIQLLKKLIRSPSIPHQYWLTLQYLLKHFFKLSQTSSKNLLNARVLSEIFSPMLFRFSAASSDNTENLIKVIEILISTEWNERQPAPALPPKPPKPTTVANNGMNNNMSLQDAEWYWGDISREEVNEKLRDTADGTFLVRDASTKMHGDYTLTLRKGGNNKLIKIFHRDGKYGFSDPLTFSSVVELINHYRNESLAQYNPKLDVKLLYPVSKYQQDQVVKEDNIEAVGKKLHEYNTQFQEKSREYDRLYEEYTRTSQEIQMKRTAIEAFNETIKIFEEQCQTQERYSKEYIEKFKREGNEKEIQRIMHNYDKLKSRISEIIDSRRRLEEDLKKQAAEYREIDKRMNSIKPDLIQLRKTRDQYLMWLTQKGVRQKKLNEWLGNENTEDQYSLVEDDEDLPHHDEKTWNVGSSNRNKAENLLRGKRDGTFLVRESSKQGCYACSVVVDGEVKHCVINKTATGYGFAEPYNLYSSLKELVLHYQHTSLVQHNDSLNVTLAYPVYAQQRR

| IC50 | Compound |
| --- | --- |
| 380 nM | COc1ccc2c(c1)c(C=C1Oc3cccc(O)c3C1=O)c(C)n2CCCCl [Example 125, 2-{[1-(3-chloropropyl)-5-methoxy-2-methyl-1H-indol-3-yl]methylene}-4-hydroxy-1-benzofuran-3(2H)-one] |
| 3.67 nM | CNC(=O)Nc1ccc2c(c1)C(=O)/C(=C/c1c(-c3ccncc3)n(CCN3CCN(C)CC3)c3ccc(OC)cc13)O2 [Compound 590, 1-[(2Z)-2-({5-methoxy-1-[2-(4-methylpiperazin-1-yl)ethyl]-2-pyridin-4-yl-1Hindol-3-yl}methylene)-3-oxo-2,3-dihydro-1-benzofuran-5-yl]-3-methylurea] |
| 64.5 nM | COc1ccc2c(c1)c(C=C1Oc3c(ccc(O)c3O)C1=O)c(C)n2CCCCl [Example 124, 2-{[1-(3-chloropropyl)-5-methoxy-2-methyl-1H-indol-3-yl]methylene}-6,7-dihydroxy-1-benzofuran-3(2H)-one] |
| 3830 nM | COc1ccc2[nH]c(C)c(CC3Oc4cc(O)cc(O)c4C3=O)c2c1 (stereo not drawn) [Example 119, 4,6-dihydroxy-2-[(5-methoxy-2-methyl-1H-indol-3-yl)methyl]-1-benzofuran-3(2H)-one] |
| 2.2 nM | CNC(=O)Nc1ccc2c(c1)C(=O)/C(=C/c1c(C3CCCCC3)n(CCN3CCN(C)CC3)c3ccc(OC)cc13)O2 [Compound 533, 1-[(2Z)-2-({2-cyclohexyl-5-methoxy-1-[2-(4-methylpiperazin-1-yl)ethyl]-1H-indol-3-yl}methylene)-3-oxo-2,3-dihydro-1-benzofuran-5-yl]-3-methylurea] |
| 242 nM | COc1ccc2c(c1)c(/C=C1\Oc3ccc(NC(=O)NCCCN(C)C)cc3C1=O)cn2CCN1CCN(C)CC1 [Compound 569, 1-[3-(dimethylamino)propyl]-3-[(2Z)-2-({5-methoxy-1-[2-(4-methylpiperazin-1-yl)ethyl]-1H-indol-3-yl}methylene)-3-oxo-2,3-dihydro-1-benzofuran-5-yl]urea] |
| > 10000 nM | Cc1ccc2c(c1)C(=O)/C(=C/c1c[nH]c3cc(C)ccc13)S2 [Example 292, (2Z)-5-methyl-2-[(6-methyl-1H-indol-3-yl)methylene]-1-benzothiophen-3(2H)-one] |
| > 10000 nM | O=C1/C(=C/c2cn(Cc3ccccc3)c3ccccc23)Oc2cc(O)ccc21 [Example 33, (2Z)-2-[(1-benzyl-1H-indol-3-yl)methylene]-6-hydroxy-1-benzofuran-3(2H)-one] |
| > 10000 nM | Cc1ccc2c(c1)C(=O)/C(=C/c1c(-c3ccc(Cl)cc3)[nH]c3ccccc13)S2 [Example 291, (2Z)-2-{[2-(4-chlorophenyl)-1H-indol-3-yl]methylene}-5-methyl-1-benzothiophen-3(2H)-one] |
| 1320 nM | Cc1[nH]c2ccccc2c1/C=C1\Sc2ccccc2C1=O [Example 272, (2Z)-2-[(2-methyl-1H-indol-3-yl)methylene]-1-benzothiophen-3(2H)-one] |
| > 10000 nM | O=C1/C(=C/c2cn(Cc3ccccc3)c3ccccc23)Oc2ccccc21 [Example 25, (2Z)-2-[(1-benzyl-1H-indol-3-yl)methylene]-1-benzofuran-3(2H)-one] |
| > 10000 nM | O=C1/C(=C/c2c(-c3ccccc3)[nH]c3ccccc23)Sc2ccc(Cl)cc21 [Example 283, (2Z)-5-chloro-2-[(2-phenyl-1H-indol-3-yl)methylene]-1-benzothiophen-3(2H)-one] |
| 12000 nM | Cc1ccc2c(c1)C(=O)C(=Cc1c(-c3ccc4ccccc4c3)[nH]c3ccccc13)S2 [Example 296, 5-methyl-2-{[2-(2-naphthyl)-1H-indol-3-yl]methylene}-1-benzothiophen-3(2H)-one] |
| 359 nM | CN(c1ccccc1)c1cccc2c1c(/C=C1\Oc3cc(O)cc(O)c3C1=O)cn2C [Compound 542, (2Z)-4,6-dihydroxy-2-({1-methyl-4-[methyl(phenyl)amino]-1H-indol-3-yl}methylene)-1-benzofuran-3(2H)-one] |
| > 10000 nM | O=C1/C(=C/c2c[nH]c3ccc(Br)cc23)Oc2ccccc21 [Example 24, (2Z)-2-[(5-bromo-1H-indol-3-yl)methylene]-1-benzofuran-3(2H)-one] |
| > 10000 nM | COc1cccc2c1O/C(=C\c1c[nH]c3cc(C)ccc13)C2=O [Example 40, (2Z)-7-methoxy-2-[(6-methyl-1H-indol-3-yl)methylene]-1-benzofuran-3(2H)-one] |
| 1980 nM | O=C1/C(=C/c2c(-c3ccc(F)cc3)[nH]c3ccccc23)Oc2ccccc21 [Example 19, (2Z)-2-{[2-(4-fluorophenyl)-1H-indol-3-yl]methylene}-1-benzofuran-3(2H)-one] |
| > 10000 nM | O=C1/C(=C/c2cn(Cc3ccccc3)c3ccccc23)Sc2ccc(Cl)cc21 [Example 287, (2Z)-2-[(1-benzyl-1H-indol-3-yl)methylene]-5-chloro-1-benzothiophen-3(2H)-one] |

| IC50 | Compound |
| --- | --- |
| > 10000 nM | Cc1ccc2c(c1)C(=O)/C(=C/c1c[nH]c3c(C)cccc13)S2 [Example 293, (2Z)-5-methyl-2-[(7-methyl-1H-indol-3-yl)methylene]-1-benzothiophen-3(2H)-one] |
| > 10000 nM | COc1cccc2c1OC(=Cc1cn(C)c3ccccc13)C2=O [Example 12, 7-methoxy-2-[(1-methyl-1H-indol-3-yl)methylene]-1-benzofuran-3(2H)-one] |
| > 10000 nM | Cc1[nH]c2ccc([N+](=O)[O-])cc2c1/C=C1\Oc2ccccc2C1=O [Example 20, (2Z)-2-[(2-methyl-5-nitro-1H-indol-3-yl)methylene]-1-benzofuran-3(2H)-one] |
| > 10000 nM | Cc1ccc2c(c1)C(=O)C(=Cc1cn(C)c3ccccc13)S2 [Example 299, 5-methyl-2-[(1-methyl-1H-indol-3-yl)methylene]-1-benzothiophen-3(2H)-one] |
| 2430 nM | O=C1/C(=C/c2c(-c3ccc(F)cc3)[nH]c3ccccc23)Oc2cc(O)ccc21 [Example 28, (2Z)-2-{[2-(4-fluorophenyl)-1H-indol-3-yl]methylene}-6-hydroxy-1-benzofuran-3(2H)-one] |
| 2550 nM | O=C1/C(=C/c2c(-c3ccc4ccccc4c3)[nH]c3ccccc23)Oc2ccccc21 [Example 18, (2Z)-2-{[2-(2-naphthyl)-1H-indol-3-yl]methylene}-1-benzofuran-3(2H)-one] |
| 12800 nM | Cc1[nH]c2ccccc2c1/C=C1\Oc2cc(O)ccc2C1=O [Example 30, (2Z)-6-hydroxy-2-[(2-methyl-1H-indol-3-yl)methylene]-1-benzofuran-3(2H)-one] |
| > 10000 nM | COc1cccc2c1OC(=Cc1c(-c3ccccc3)n(C)c3ccccc13)C2=O [Example 11, 7-methoxy-2-[(1-methyl-2-phenyl-1H-indol-3-yl)methylene]-1-benzofuran-3(2H)-one] |
| 1150 nM | COc1ccc2c(c1)c(C=C1Oc3c(ccc(O)c3O)C1=O)cn2C [Example 85, 6,7-dihydroxy-2-[(5-methoxy-1-methyl-1H-indol-3-yl)methylene]-1-benzofuran-3(2H)-one] |
| 1600 nM | COc1ccc2c(c1)c(C=C1Oc3c(ccc(O)c3O)C1=O)c(C)n2CCCCN1CCN(C)CC1 [Example 144, 6,7-dihydroxy-2-({5-methoxy-2-methyl-1-[4-(4-methylpiperazin-1-yl)butyl]-1H-indol-3-yl}methylene)-1-benzofuran-3(2H)-one] |
| > 10000 nM | COc1cccc2c1OC(=Cc1c(-c3ccccc3)[nH]c3ccccc13)C2=O [Example 10, 7-methoxy-2-[(2-phenyl-1H-indol-3-yl)methylene]-1-benzofuran-3(2H)-one] |
| 1940 nM | COc1cccc2c1O/C(=C\c1c(-c3ccc(Cl)cc3)[nH]c3ccccc13)C2=O [Example 35, (2Z)-2-{[2-(4-chlorophenyl)-1H-indol-3-yl]methylene}-7-methoxy-1-benzofuran-3(2H)-one] |
| > 10000 nM | O=C1/C(=C/c2c(-c3ccc(Cl)cc3)[nH]c3ccccc23)Sc2ccc(Cl)cc21 [Example 284, (2Z)-5-chloro-2-{[2-(4-chlorophenyl)-1H-indol-3-yl]methylene}-1-benzothiophen-3(2H)-one] |
| 1420 nM | O=C1/C(=C/c2cn(Cc3ccccc3)c3ccccc23)Sc2ccccc21 [Example 282, (2Z)-2-[(1-benzyl-1H-indol-3-yl)methylene]-1-benzothiophen-3(2H)-one] |
| > 10000 nM | O=C1C(=Cc2c[nH]c3ccccc23)Oc2ccccc21 [Example 1, 2-(1H-indol-3-ylmethylene)-1-benzofuran-3(2H)-one] |
| 589 nM | COc1cc(-c2ccncc2)c2c(c1)c(/C=C1\Oc3cc(O)ccc3C1=O)cn2CCCC#N [Compound 500, 4-{3-[(Z)-(6-hydroxy-3-oxo-1-benzofuran-2(3H)-ylidene)methyl]-5-methoxy-7-pyridin-4-yl-1H-indol-1-yl}butanenitrile] |
| > 10000 nM | COc1cccc2c1O/C(=C\c1cn(Cc3ccccc3)c3ccccc13)C2=O [Example 42, (2Z)-2-[(1-benzyl-1H-indol-3-yl)methylene]-7-methoxy-1-benzofuran-3(2H)-one] |

What follows are compounds tested against PI3K-gamma (Homo sapiens, UniProt P48736) (assay: PI3K-gamma fluorescence polarization assay). Settings: PI3Kγ Avg. IC50.
Format: biochemical
Experimental: PI3K-Alpha, PI3K-Beta, PI3K-Gamma, and PI3K-delta Fluorescence Polarization Assay Protocols
PI3-Kinase reactions were performed in 5 mM HEPES, pH 7, 2.5 mM MgCl2, and 25 μM ATP, with diC8-PI(4,5)P2 (Echelon, Salt Lake City Utah) as substrate. Nunc 384-well black polypropylene fluorescent plates were used for PI3K assays. Reactions were quenched by the addition of EDTA to a final concentration of 10 mM. Final reaction volumes were 10 μl. For evaluation of PI3K inhibitors, 5 ng of enzyme (PI3K-alpha, beta, gamma, or delta) and 2.5 μM of substrate was used per […] reaction volume, and inhibitor concentrations ranged from 100 μM to 20 μM; the final level of DMSO in reactions never exceeded 2%. Reactions were allowed to proceed for one hour at 25° C. After 1 hour, GST-tagged GRP1 (general receptor for phosphoinositides) PH domain fusion protein was added to a final concentration of 100 nM, and BODIPY-TMRI(1,3,4,5)P4 (Echelon) was also added to a final concentration of 5 nM. Final sample volumes were 25 μl with a final DMSO concentration of 0.8%. Assay Plates were read on Perkin-Elmer Envision plate readers with appropriate filters for Tamra [BODIPY-TMRI(1,3,4,5)P4]. Data obtained were used to calculate enzymatic activity and enzyme inhibition by inhibitor compounds.

PI3K-gamma, sequence (P48736 whole entry, species assumed): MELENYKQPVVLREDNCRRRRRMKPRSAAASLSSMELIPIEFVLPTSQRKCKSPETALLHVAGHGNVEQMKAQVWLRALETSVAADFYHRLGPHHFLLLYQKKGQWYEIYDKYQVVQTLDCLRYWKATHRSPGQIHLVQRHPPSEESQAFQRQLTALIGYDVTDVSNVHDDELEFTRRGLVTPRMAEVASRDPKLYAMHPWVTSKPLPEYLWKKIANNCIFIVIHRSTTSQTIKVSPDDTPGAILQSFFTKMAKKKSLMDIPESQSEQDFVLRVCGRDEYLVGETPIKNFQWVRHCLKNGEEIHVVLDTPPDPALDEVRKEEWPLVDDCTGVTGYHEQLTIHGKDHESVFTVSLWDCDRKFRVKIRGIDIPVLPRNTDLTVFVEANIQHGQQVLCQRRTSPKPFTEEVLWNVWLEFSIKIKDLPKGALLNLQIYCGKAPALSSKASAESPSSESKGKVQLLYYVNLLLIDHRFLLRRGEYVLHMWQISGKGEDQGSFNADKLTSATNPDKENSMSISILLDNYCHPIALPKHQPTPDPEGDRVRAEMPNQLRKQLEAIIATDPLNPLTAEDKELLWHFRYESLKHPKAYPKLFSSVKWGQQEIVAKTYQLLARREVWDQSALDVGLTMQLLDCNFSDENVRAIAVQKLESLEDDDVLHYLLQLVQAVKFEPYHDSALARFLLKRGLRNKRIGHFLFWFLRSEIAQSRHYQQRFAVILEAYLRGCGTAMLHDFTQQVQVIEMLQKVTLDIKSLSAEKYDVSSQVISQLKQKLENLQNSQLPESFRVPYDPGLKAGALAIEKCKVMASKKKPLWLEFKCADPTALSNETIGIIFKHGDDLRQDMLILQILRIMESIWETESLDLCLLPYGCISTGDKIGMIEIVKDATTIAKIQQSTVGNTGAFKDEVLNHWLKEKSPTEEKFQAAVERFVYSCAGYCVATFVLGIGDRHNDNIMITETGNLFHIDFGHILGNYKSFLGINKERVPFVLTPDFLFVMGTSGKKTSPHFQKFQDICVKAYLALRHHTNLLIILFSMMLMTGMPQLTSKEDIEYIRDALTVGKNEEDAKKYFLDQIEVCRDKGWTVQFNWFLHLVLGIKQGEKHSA

| IC50 | Compound |
| --- | --- |
| 933 nM | COc1ccc2c(c1)c(C=C1Oc3cccc(O)c3C1=O)c(C)n2CCCCl [Example 125, 2-{[1-(3-chloropropyl)-5-methoxy-2-methyl-1H-indol-3-yl]methylene}-4-hydroxy-1-benzofuran-3(2H)-one] |
| 1020 nM | CNC(=O)Nc1ccc2c(c1)C(=O)/C(=C/c1c(-c3ccncc3)n(CCN3CCN(C)CC3)c3ccc(OC)cc13)O2 [Compound 590, 1-[(2Z)-2-({5-methoxy-1-[2-(4-methylpiperazin-1-yl)ethyl]-2-pyridin-4-yl-1Hindol-3-yl}methylene)-3-oxo-2,3-dihydro-1-benzofuran-5-yl]-3-methylurea] |
| 1220 nM | COc1ccc2c(c1)c(C=C1Oc3c(ccc(O)c3O)C1=O)c(C)n2CCCCl [Example 124, 2-{[1-(3-chloropropyl)-5-methoxy-2-methyl-1H-indol-3-yl]methylene}-6,7-dihydroxy-1-benzofuran-3(2H)-one] |
| > 10000 nM | COc1ccc2[nH]c(C)c(CC3Oc4cc(O)cc(O)c4C3=O)c2c1 (stereo not drawn) [Example 119, 4,6-dihydroxy-2-[(5-methoxy-2-methyl-1H-indol-3-yl)methyl]-1-benzofuran-3(2H)-one] |
| 389 nM | CNC(=O)Nc1ccc2c(c1)C(=O)/C(=C/c1c(C3CCCCC3)n(CCN3CCN(C)CC3)c3ccc(OC)cc13)O2 [Compound 533, 1-[(2Z)-2-({2-cyclohexyl-5-methoxy-1-[2-(4-methylpiperazin-1-yl)ethyl]-1H-indol-3-yl}methylene)-3-oxo-2,3-dihydro-1-benzofuran-5-yl]-3-methylurea] |
| 6500 nM | COc1ccc2c(c1)c(/C=C1\Oc3ccc(NC(=O)NCCCN(C)C)cc3C1=O)cn2CCN1CCN(C)CC1 [Compound 569, 1-[3-(dimethylamino)propyl]-3-[(2Z)-2-({5-methoxy-1-[2-(4-methylpiperazin-1-yl)ethyl]-1H-indol-3-yl}methylene)-3-oxo-2,3-dihydro-1-benzofuran-5-yl]urea] |
| 6950 nM | Cn1cc(/C=C2\Oc3cc(O)cc(O)c3C2=O)c2ccccc21 [Example 16, (2Z)-4,6-dihydroxy-2-[(1-methyl-1H-indol-3-yl)methylene]-1-benzofuran-3(2H)-one] |
